Test results taken from a melting point compilation (Tetko et al.; mined from patent text by program, amines drawn as free bases though some values may be those of a salt).
Residues, ends and D or L forms follow the SMILES beside them. *: point of attachment. Propionyl = CCC(=O)*; NHPh = c1ccc(N*)cc1

Row | Structure (SMILES) | melting point [°C]
1 | O=P1(c2ccc(Cl)cc2)c2ccccc2CN1c1ccccc1 (stereo not drawn) | 180 to 182
2 | CCCCCCOc1c(C=O)ccc2c1C=CC(C=O)(OCCCCCC)C2 (stereo not drawn) | 50 to 52
3 | Nc1nc(N)c2c(n1)CCC(Cc1ccccc1Cl)C2 (stereo not drawn) | 134
4 | Cn1nc(CO)nc1NCCCCOc1cccc(CN2CCCCC2)c1 | 82 to 83
5 | CC(=NOCCOc1ccc(C(=O)O)c(OC(=O)c2ccc(-c3ccccc3)cc2)c1)c1ccccc1 | 158 to 159
6 | Cc1ccc(C(=O)NC(CCCCCl)C(=O)O)cc1 (stereo not drawn) | 177 to 181
7 | CN(C(=O)CCCCO/N=C(\c1ccccc1)c1ccc2c(c1)CN1CC(=O)NC1=N2)C1CCCCC1 | 190
8 | CCOC(=O)C=Cc1cc(=O)c(C(=O)O)cn1-c1ccc(O)cc1C | 185 to 189
9 | Cc1cc(CCC(=O)O)nc(-c2nc(=O)c3ccc(Cl)cc3s2)c1 | 232 to 233
10 | COc1ccccc1-c1cc(N)c(S(N)(=O)=O)cc1C | 172 to 175
11 | CC(=O)Nc1nn(C)c2nc3n(c(=O)c12)CCS3 | 250 to 252
12 | O=C(O)C1Cc2ccccc2N1C(=O)CCS (stereo not drawn) | 140 to 142
13 | CCOC(=O)CNC(=S)Cc1cnc(C)c2c1COC(C)(C)O2 | 156 to 158
14 | CC(C)(CF)C(=O)Cn1cncn1 | 59
15 | COc1ccc(Cc2cnc(N)nc2N)cc1OCc1ccccc1 | 210 to 212
16 | O=C(O)c1ccc(I)cc1F | 158 to 159
17 | CCCCC(=N)OCC | 89 to 91
18 | COc1ccc(-n2c(-c3ccc(Br)cc3)nc3c4ccccc4c4ccccc4c32)cc1 | 239
19 | Cc1nc2c3c(ccc2n1C)[C@@H](O)[C@H](O)[C@@H](c1ccccc1)O3 | 262
20 | CCOC(=O)Cc1ccc(NC(=O)C(COc2ccccc2Cl)NS(=O)(=O)c2ccc(Cl)cc2)cc1 (racemic) | 141 to 142
21 | CS(=O)c1ccc(-n2cnc3ccc(-c4nnc(SCc5cccc(C#N)c5)o4)cc32)cc1 (stereo not drawn) | 152 to 153
22 | N#Cc1c(-c2ccc(OCc3ccccc3)cc2)n(Cc2ccc(OCCCl)cc2)c2cccc(OCc3ccccc3)c12 | 160 to 162
23 | COc1ccccc1-c1cccc2nc(Nc3cc(OC)c(OC)c(OC)c3)oc12 | 185 to 187
24 | Cc1cccc(C)c1NC=O | 163 to 164
25 | COC(=O)c1cncn1C1c2cccc(Cl)c2CC1(C)C (stereo not drawn) | 111 to 113
26 | CC(C)COc1ccccc1OCCOS(C)(=O)=O | 59 to 61

Row | Structure (SMILES) | melting point [°C]
27 | C#CCn1c(C(F)(F)F)nc2cc(F)c(-n3c(=O)cc(C(F)(F)F)n(C)c3=O)cc21 | 104 to 105
28 | CC(=O)c1ccc2c(c1)C(C(=O)Nc1cccc(C(=O)Nc3ccccc3)c1)C(=O)N2CC(F)(F)F (stereo not drawn) | 197 to 203
29 | CCCCCCCCCCCC1N(C(C)=O)c2ccccc2-c2c([N+](=O)[O-])cnn21 (stereo not drawn) | 83 to 85
30 | Cc1oc(-c2ccccc2)nc1CCC(N)=O | 149 to 150
31 | Nc1ccccc1C(=O)N1Cc2ccccc2C(=O)N1 | 156 to 157
32 | CC(=O)N(C)c1cccc(-c2nc(=O)c3ccccc3s2)n1 | 218 to 220
33 | Cc1c(Cl)nc(NC=O)nc1Cl | 123 to 124
34 | CC(C)(C)OC(=O)N[C@@H](Cc1ccc(O)cc1)C(=O)NCC(=O)NCC(=O)Oc1c(Cl)c(Cl)c(Cl)c(Cl)c1Cl | 186
35 | CN1CCC(=C2c3ccccc3CCc3ccc(C#N)cc32)CC1 | 152 to 154
36 | Clc1cccc(Cl)c1Cn1c(-c2ccc3c(c2)OCO3)nc2ccccc21 | 187 to 189
37 | O=[N+]([O-])c1ccc(O)c(Cn2c(=S)sc3ccccc32)c1 | 231
38 | COC(=O)Cc1c(Cl)ncnc1N(C)C | 30 to 32
39 | CNC(=S)N(C)c1ccc(OC)nc1 | 116
40 | COC(=O)C=CC1=CC2=CNC=C3CC(N(C)C)C(=C23)CO1 (stereo not drawn) | 168 to 170
41 | N#Cc1cnc2c(cc([N+](=O)[O-])c3nncc32)c(-c2ccccc2Cl)n1 | 193 to 196
42 | CCCCCCCCCCCCNC(=O)c1cc(Br)c(OCCNC(N)=O)c(-c2cccc(C(F)(F)F)c2)c1 | 122 to 125
43 | C#CCOc1ccc2ccc(=S)oc2c1 | 97 to 101
44 | CCCN1C(=O)C2(CC)CC(c3ccc([N+](=O)[O-])cc3)(C2)C1=O | 121 to 122
45 | CNCCCNCCCSP(=O)(O)O | 115 to 120
46 | Cn1c(=O)n(C(=O)OC(C)(C)C)c2ccc(Br)cc21 | 98 to 99
47 | CCCOc1ccccc1-c1nc2nnc(OC)nc2c(=O)[nH]1 | 221 to 222
48 | COC(=O)Cn1c(=O)c2ccccc2n(CCCN2CCC(OC(c3ccccc3)c3ccccc3)CC2)c1=O | 109 to 110
49 | O=C(Nc1cc(OCCCON=Cc2ccc(-c3ccccc3)cc2)ccc1C(=O)O)c1ccc(C(F)(F)F)cc1 | 206 to 207
50 | O=C(OCC1OC(OC(=O)C2CCCCC2)C(OC(=O)C2CCCCC2)C(OC(=O)C2CCCCC2)C1OC(=O)C1CCCCC1)C1CCCCC1 (stereo not drawn) | 174 to 176
51 | CC1(C)NC(=O)N(c2ccc(F)cc2)C1=O | 166 to 167
52 | CCc1[nH]n(C2CCCC2)c2nc(Cc3cccs3)nc(=O)c1-2 | 173 to 174

Row | Structure (SMILES) | melting point [°C]
53 | C1=Cc2c(ccc3cccnc23)OC1 | 207 to 208
54 | CSC(=C[N+](=O)[O-])NCCSCc1ccsn1 | 64.5 to 65.5
55 | O=c1[nH][nH]c(=O)c2c(O)c3ccc(Br)cc3nc12 | 278
56 | CCOC(=O)CC[C@H](NC(=O)c1cc(CCCc2cc3c(=O)[nH]c(N)nc3[nH]2)cs1)C(=O)OCC | 81 to 82
57 | O=C(NC1CCCCC1)c1ccc(CO)cc1 | 185
58 | CCCc1c(OCc2cc(Br)c(C(=O)O)cc2OC)ccc(C(C)=O)c1O | 237 to 238
59 | CCOC(=O)COc1ccc(S(=O)CCNS(=O)(=O)c2ccccc2)cc1 (stereo not drawn) | 116 to 118
60 | CC1(C)C2CC[C@]1(C)C(=O)C(C(=O)Nc1ccc(C(F)(F)F)cc1)C2=O (stereo partly drawn) | 78 to 81
61 | CC(C)(CCCc1cccnc1)NC(=O)C=CC=C(c1cccc(F)c1)c1cccc(F)c1 | 135 to 136
62 | CCOc1ncc(SC)cc1C(=O)O | 78 to 92
63 | O=C(Nc1ccc(F)cc1)NC1CC1 | 205
64 | Cc1cc(C)c(C=O)c(O)c1 | 46 to 48
65 | CCOC(=O)c1c(OC(C)C)c(Br)c(Br)n1Cc1ccccc1 | 46 to 48
66 | O=[N+]([O-])c1ccc(Oc2nn(Cc3ccccc3F)c3ncccc23)nc1 | 111 to 113
67 | COc1cc2c3c(c1)c(=O)c(C(=O)O)cn3CCC2 | 253 to 257
68 | CCOC(=O)C(C(=O)O)=C1SCS1 | 166 to 167
69 | CCOc1ccc([N+](=O)[O-])cc1OC | 88 to 90
70 | COC(=O)c1cccc(-c2ccc3c(c2)NCC3)c1 | 104 to 105
71 | CC(C)[C@H](NC(=O)OCc1ccccc1)C(=O)NNS(=O)(=O)c1ccccc1 | 253 to 255
72 | COc1cccc(NC(=O)NC2N=C(c3ccccc3)c3ccccc3N(C)C2=O)c1 (stereo not drawn) | 216 to 219
73 | Cc1cccc2c1[nH]c1c(C(=O)O)cccc12 | 286
74 | CCc1ccc2c(c1)OC1(O)c3cccc([N+](=O)[O-])c3C(=O)C21O (stereo not drawn) | 110 to 120
75 | COc1ccc2c(c1C)CCCC2=O | 103 to 105
76 | CCCn1c(=O)c(C(=O)OCC)c(O)c2ccc(C)nc21 | 128 to 130
77 | CCOC(=O)c1cc(CC)sc1Nc1ccc(Cl)cc1N | 119 to 121
78 | CC(C)(C)C(=O)CC(C(=O)C(C)(C)C)n1cncn1 (stereo not drawn) | 66 to 69

Row | Structure (SMILES) | melting point [°C]
79 | CC1(C)Oc2ccc(C#N)cc2C(n2nc(-c3c(-c4ccccc4)nn4ccccc34)ccc2=O)C1O (stereo not drawn) | 209 to 210
80 | Cc1ccc(N2C(=O)C(Cl)=C(C(=O)c3ccc(C(C)C)cc3)C2c2ccc(OC(F)(F)F)cc2)nn1 (stereo not drawn) | 293
81 | CCC(=O)N[C@@H](C)C(=O)N[C@@H](C)C(=O)Nc1ccccc1 (Propionyl-Ala-Ala-NHPh) | 281 to 284
82 | Cc1c(C(F)(F)F)cnn(-c2cc(OCC3CC3)c(Cl)cc2F)c1=O | 82.3
83 | Cc1ccc2c(c1)c(C1=C(Br)C(=O)N(C)C1=O)cn2C | 107 to 110
84 | Oc1ccc2c(NCCN3CCOCC3)noc2c1 | 151 to 152
85 | O=C(O)CCCC(CCCNS(=O)(=O)c1ccc(Cl)cc1)CCc1cccnc1 (stereo not drawn) | 83 to 85
86 | O=C(O)C1=Cc2cc(S(=O)(=O)Cc3ccccc3)ccc2OC1C(F)(F)F (stereo not drawn) | 172 to 176
87 | COC(=O)c1cc2ccc(N3CCOCC3)cc2c2c1C=CC(c1ccc(OC)cc1)(c1ccc(OC)cc1)O2 | 154 to 155
88 | CC1(C)OC(C=Cc2cccc(C#N)c2)=CC1=O | 155 to 157
89 | COc1ccc(C[C@@H](NC(=O)c2cccc3ccccc23)[C@@H](O)c2ccc(F)cc2)cc1 (racemic) | 198 to 199
90 | CS(=O)(=O)c1ccc(CC(=S)N2CCOCC2)cc1 | 198 to 199
91 | COc1ccccc1CNc1ccc2cc(Nc3nc(C)no3)ccc2n1 | 175
92 | O=c1ccc(-c2ccc(Cl)cc2)n[nH]1 | 175 to 176
93 | Cc1cc(-c2cc(C(F)F)n3ncc(-c4ccncc4)c3n2)ccc1C(F)(F)F | 236
94 | Cn1cc(C2(c3c4n(c5ccccc35)CCCCC4)CC(=O)NC2=O)c2ccccc21 (stereo not drawn) | > 300
95 | COC(=O)CCCCCCCCCCCCCCCCCOS(=O)(=O)c1ccc(C)cc1 | 67.5 to 68.5
96 | Cn1nc(-c2sc(C(=O)NCc3ccccn3)nc2-c2ccccc2)ccc1=O | 189 to 190
97 | COC(=O)/C=C(\C)C(C)Sc1nc(N)cc(Cl)n1 (stereo not drawn) | 124 to 126
98 | CN1C(=O)C(NC(=O)c2ccccc2)C(C)(C)SC1=S (stereo not drawn) | 184 to 185
99 | CCOC(=O)c1cccc(NC(=O)C(CO)NS(=O)(=O)c2ccc(Cl)cc2)c1 (racemic) | 142 to 144
100 | CC(=O)c1c(-c2ccc(Cl)cc2)c(-c2ccc(Cl)cc2)n[nH]c1=O | 267 to 269
101 | COc1ccc(NC(C)=O)cc1F | 120
102 | CC=C1CCC2C3CCC4CC(O)C(OCC)CC4(C)C3C(N)CC12C (stereo not drawn) | 65 to 70
103 | C[Si](C)(C)/C=C/c1c(N)nc(-c2ccc(Cl)c(F)c2F)nc1C(=O)O | 155 to 157
